The test system of one assay is K562. Put plainly: In vitro inhibitory concentration against human chronic myelogenous leukemia K562 cell growth. Format: functional, cell-based.
The target in another assay is Tubulin (Sus scrofa, UniProt P02554+P02550). Put plainly: In vitro inhibition of maximum porcine tubulin assembly rate after 20 min at 37 degrees C. Format: functional.

Structures can show the parent of a compound that is named as a salt.

Broadly, the IC50 is the midpoint of a concentration-inhibition curve. A low value points to inhibition by little substance. In turn, `O=C1c2ccccc2C(=Cc2ccc3c(c2)OCO3)c2ccccc21` registered an IC50 with K562 of 0.9 µM.

`COc1cc(C=C2c3ccccc3C(=O)c3ccccc32)cc(OC)c1OC`: the IC50 in the assay with K562 came out at 4 µM; against Tubulin it was 10 µM. Taken in the same sequence, the figures for `O=C1c2ccccc2C(=Cc2ccc(O)cc2)c2ccccc21` were 0.8 µM and 2.5 µM. Consider `COc1cc(C=C2c3ccccc3C(=O)c3ccccc32)cc(OC)c1`, for which the IC50 is 0.6 µM in the assay with K562 and more than 10 µM against Tubulin.

In the assay with K562, `O=C1c2ccccc2C(=Cc2ccc(C(F)(F)F)cc2)c2ccccc21` displayed an IC50 of more than 20 µM.

As for `COc1cc(CC2c3ccccc3C(=O)c3ccccc32)cc(OC)c1OC`, the figures for the IC50 with K562 and at Tubulin were more than 80 µM and more than 10 µM, respectively. The matching figures for `Cc1cc(C=C2c3ccccc3C(=O)c3ccccc32)cc(C)c1O`: 0.8 µM and 0.91 µM. On Tubulin, `COc1cc(CC2c3ccccc3C(=O)c3ccccc32)cc(OC)c1` returned an IC50 of 10 µM.

Turning to `CC[C@]1(O)C[C@@H]2CN(CCc3c([nH]c4ccccc34)[C@@](C(=O)OC)(c3cc4c(cc3OC)N(C)[C@H]3[C@@](O)(C(=O)OC)[C@H](OC(C)=O)[C@]5(CC)C=CCN6CC[C@]43[C@@H]65)C2)C1` [VINBLASTINE SULFATE], the half-maximal inhibitory concentration (IC50) with K562 came to 0.001 µM. In the case of `O=C1c2ccccc2C(=Cc2cc(Br)c(O)c(Br)c2)c2ccccc21`, the results for the IC50 in the assay on K562 and on Tubulin were 0.16 µM and 0.48 µM, respectively. Regarding `O=C1c2ccccc2C(=Cc2cc(O)c(O)c(O)c2)c2ccccc21`, the IC50 in the assay on K562 is 20 µM; at Tubulin, more than 10 µM. For the compound `CC(C)(C)c1cc(C=C2c3ccccc3C(=O)c3ccccc32)cc(C(C)(C)C)c1O`, the IC50 in the assay with K562 was found to be 39 µM.

`COc1ccc(CC2c3ccccc3C(=O)c3ccccc32)cc1`: the IC50 in the assay with K562 stood at 25 µM; on Tubulin it was 2.6 µM. Consider `COc1ccc(CC2c3ccccc3C(=O)c3ccccc32)cc1OC(=O)c1ccccc1`, for which, at Tubulin, the half-inhibitory concentration (IC50) is more than 10 µM.

As to `O=C1c2ccccc2C(=Cc2cc(Cl)cc(Cl)c2)c2ccccc21`, the IC50 was 6 µM in the assay on K562 and more than 10 µM against Tubulin.

On to `O=C1c2ccccc2C(=Cc2ccc([N+](=O)[O-])cc2)c2ccccc21`, for which half-maximal inhibition with K562 (IC50) required 3 µM.

`CCOC(=O)c1ccc(C=C2c3ccccc3C(=O)c3ccccc32)cc1` yielded an IC50 with K562 of 0.7 µM. For the compound `O=C1c2ccccc2C(=Cc2ccc(OCc3ccccc3)cc2)c2ccccc21`, the IC50 was 22 µM with K562 and more than 10 µM against Tubulin. The matching figures for `COc1ccc(CC2c3ccccc3C(=O)c3ccccc32)cc1O`: 7 µM and 2.3 µM. Taken in the same sequence, the figures for `O=C1c2ccccc2C(=Cc2ccccc2)c2ccccc21` were 2 µM and 4.4 µM. In the assay on K562, `COc1ccc(/C=C\c2cc(OC)c(OC)c(OC)c2)cc1O` [COMBRETASTATIN A4] registered an IC50 of 0.02 µM. Regarding `COC(=O)c1cc(C=C2c3ccccc3C(=O)c3ccccc32)ccc1O`, the IC50 in the assay with K562 was 1.4 µM; against Tubulin, more than 10 µM. Taken in the same sequence, the figures for `COc1ccc(C=C2c3ccccc3C(=O)c3ccccc32)cc1OC` were 0.6 µM and 1.7 µM.

`COc1ccc(CC2c3ccccc3C(=O)c3ccccc32)cc1OC`: the IC50 with K562 was 62 µM; against Tubulin, more than 10 µM.

(Values after ChEMBL document CHEMBL1136796 (J Med Chem, 2003).)
